# Laboratory results as given in patent US4122034A, “Antimicrobial compositions” (Schering Corporation, priority 1975, dated 1978).
# Assays:
# Proteus vulgaris = assay: In vitro antibacterial activity, dilution in Mueller Hinton Agar (Table I); assay type: cell-based; conditions: strain Napol, Mueller Hinton Agar pH 7.4
# Method: (§1) All the tests were carried out and (when necessary) scored under standard conditions. "MIC" means "minimum inhibitory concentration."
# (§2) In vitro Antibacterial Activity of 2-aminoalkyl-3-phenyl-
# (§3) indoles of the formula I. Dilution in Mueller Hinton Agar pH 7.4
# Proteus mirabilis = assay: as above; assay type: cell-based; conditions: Mueller Hinton Agar pH 7.4
# Method: as §1, §2, §3
# Proteus morganii = assay: as above; assay type: cell-based; conditions: Morganella morganii; strain Valz; Mueller Hinton Agar pH 7.4
# Method: as §1, §2, §3
# Proteus rettgeri = assay: as above; assay type: cell-based; conditions: Providencia rettgeri; 'Proteus rettgeri mirabilis' [sic]; Mueller Hinton Agar pH 7.4
# Method: as §1, §2, §3
# Staphylococcus aureus = assay: as above; assay type: cell-based; conditions: Mueller Hinton Agar pH 7.4
# Method: as §1, §2, §3
# Salmonella = assay: as above; assay type: cell-based
# Method: as §1, §2, §3
# Klebsiella = assay: as above; assay type: cell-based
# Method: as §1, §2, §3
# Escherichia coli = assay: as above; assay type: cell-based
# Method: as §1, §2, §3
# Enterococcus = assay: as above; assay type: cell-based
# Method: as §1, §2, §3
# Pseudomonas acruginosa = assay: as above; assay type: cell-based
# Method: as §1, §2, §3
# Streptococcus pyogenes = assay: as above; assay type: cell-based
# Method: as §1, §2, §3
# Trichophyton rubrum = assay: In vitro antifungal activity, dilutions in Sabouraud's Dextrose Broth (Table IV); assay type: cell-based; conditions: 96 h
# Method: as §1
# (§4) In vitro Antifungal Activity of 2-amioalkyl-3-phenylindoles
# (§5) of the formula I against Dermetophytes and Aspergillus.
# (§6) Dilutions in Sabouraud's Dextrose Broth.
# Microsporum distortum = assay: as above; assay type: cell-based; conditions: after 96 hours
# Method: as §1, §4, §5, §6
# Trichophyton ascoides = assay: as above; assay type: cell-based; conditions: after 96 hours
# Method: as §1, §4, §5, §6
# Aspergillus niger 6275 = assay: as above; assay type: cell-based; conditions: after 96 hours
# Method: as §1, §4, §5, §6
# Trichophyton megninii = assay: as above; assay type: cell-based; conditions: Trichophyton rubrum; after 96 hours
# Method: as §1, §4, §5, §6
# Trichophyton soudenense = assay: as above; assay type: cell-based; conditions: after 96 hours
# Method: as §1, §4, §5, §6
# Epidermophyton floccosum = assay: as above; assay type: cell-based; conditions: after 96 hours
# Method: as §1, §4, §5, §6
# Microsporum nanum = assay: as above; assay type: cell-based; conditions: Nannizzia nana; after 96 hours
# Method: as §1, §4, §5, §6
# Tricoderm sp. = assay: as above; assay type: cell-based; conditions: after 96 hours
# Method: as §1, §4, §5, §6
# Trichophyton discoides = assay: as above; assay type: cell-based; conditions: after 96 hours
# Method: as §1, §4, §5, §6
# T. mentagrophytes = assay: Effect against topical T. mentagrophytes infections in guinea pigs (Table VI); assay type: in vivo; set-up: Average Sum of lesion scores, Days 1-5 / Average Sum of lesion scores, Days 1-10: scale not given here; conditions: for Average Sum of lesion scores, Days 1-5: untreated controls 14.8; for Average Sum of lesion scores, Days 1-10: untreated controls 38.2
# Method: as §1
# Effect of some 2-aminoalkyl-3-phenylindoles of the formula II
# against topical T. mentagrophytes infections in guinea pigs.
# Candida albicans = assay: In vitro Anti-Candida activity, dilutions in Sabouraud's Dextrose Agar (Table III); assay type: cell-based; conditions: 48 h
# Method: as §1
# In vitro Anti-Candida Activity of 2-aminoalkyl-3-phenyl-
# indoles of the formula I. Dilutions in Sabouraud's Dextrose
# MIC (mcg/ml) after 48 hours
# Trychomonas vaginalis = assay: In vitro Anti-Trichomonal activity (Table VII); assay type: cell-based
# Method: as §1
# In vitro Anti-Trichomonal Activity of some 2-aminoalkyl-3-
# phenyl-indenes of formula II.
compound,measurement,setting,value
"NCc1[nH]c2ccc(Cl)cc2c1-c1ccccc1 [C, 2-(1-aminomethyl)-5-chloro-3-phenylindole]",MIC,Proteus vulgaris,7.5 µg/mL
same,MIC,"Proteus mirabilis; pH 7.4, strain Hard",7.5 µg/mL
same,MIC,"Proteus mirabilis; pH 7.4, strain Peras",7.5 µg/mL
same,MIC,Proteus morganii,7.5 µg/mL
same,MIC,Proteus rettgeri,7.5 µg/mL
same,MIC,"Staphylococcus aureus; 209P, pH 7.4, strain 209P",7.5 µg/mL
same,MIC,"Staphylococcus aureus; pH 7.4, strain 59N",7.5 µg/mL
same,MIC,"Staphylococcus aureus; pH 7.4, strain Gray",7.5 µg/mL
same,MIC,"Staphylococcus aureus; pH 7.4, strain Wood",7.5 µg/mL
same,MIC,"Staphylococcus aureus; pH 7.4, strain Zeigler",3 µg/mL
same,MIC,"Salmonella; TYPHI, pH 7.4, B typhi, Mueller Hinton Agar pH 7.4",3 µg/mL
same,MIC,"Salmonella; pH 7.4, C1 Oao, Mueller Hinton Agar pH 7.4",3 µg/mL
same,MIC,"Salmonella; pH 7.4, C2 Cuban, Mueller Hinton Agar pH 7.4",3 µg/mL
same,MIC,"Salmonella; pH 7.4, C2 Napc, Mueller Hinton Agar pH 7.4",3 µg/mL
same,MIC,"Salmonella; pH 7.4, Salmonella ent. 1, Mueller Hinton Agar pH 7.4",7.5 µg/mL
same,MIC,"Klebsiella; pH 7.4, strain 121, Mueller Hinton Agar pH 7.4",3 µg/mL
same,MIC,"Klebsiella; pH 7.4, strain 3020, Mueller Hinton Agar pH 7.4",3 µg/mL
same,MIC,"Klebsiella; pH 7.4, strain AD17, Mueller Hinton Agar pH 7.4",7.5 µg/mL
same,MIC,"Klebsiella; pH 7.4, strain AD22, Mueller Hinton Agar pH 7.4",3 µg/mL
same,MIC,"Klebsiella; pH 7.4, strain G3694, Mueller Hinton Agar pH 7.4",3 µg/mL
same,MIC,"Escherichia coli; pH 7.4, strain 777, Mueller Hinton Agar pH 7.4",3 µg/mL
same,MIC,"Escherichia coli; pH 7.4, strain 1574-1, Mueller Hinton Agar pH 7.4",3 µg/mL
same,MIC,"Escherichia coli; pH 7.4, strain 4195, Mueller Hinton Agar pH 7.4",3 µg/mL
same,MIC,"Escherichia coli; pH 7.4, strain 10536, Mueller Hinton Agar pH 7.4",7.5 µg/mL
same,MIC,"Escherichia coli; pH 7.4, strain JR66, Mueller Hinton Agar pH 7.4",3 µg/mL
same,MIC,"Enterococcus; pH 7.4, strain 373, Mueller Hinton Agar pH 7.4",7.5 µg/mL
same,MIC,"Enterococcus; pH 7.4, strain 0928/72, Mueller Hinton Agar pH 7.4",7.5 µg/mL
same,MIC,"Pseudomonas acruginosa; pH 7.4, strain 130, Mueller Hinton Agar pH 7.4",17.5 µg/mL
same,MIC,"Pseudomonas acruginosa; pH 7.4, strain 138, Mueller Hinton Agar pH 7.4",17.5 µg/mL
same,MIC,"Pseudomonas acruginosa; pH 7.4, strain 762, Mueller Hinton Agar pH 7.4",37.5 µg/mL
same,MIC,"Pseudomonas acruginosa; pH 7.4, strain 8709, Mueller Hinton Agar pH 7.4",17.5 µg/mL
same,MIC,"Pseudomonas acruginosa; pH 7.4, strain Trav. 1, Mueller Hinton Agar pH 7.4",17.5 µg/mL
same,MIC,"Streptococcus pyogenes; pH 7.4, strain 27, Mueller Hinton Agar pH 7.4",7.5 µg/mL
same,MIC,"Streptococcus pyogenes; pH 7.4, strain C, Mueller Hinton Agar pH 7.4",7.5 µg/mL
same,MIC,"Streptococcus pyogenes; pH 7.4, strain Cruz, Mueller Hinton Agar pH 7.4",3 µg/mL
same,MIC,"Trichophyton rubrum; strain 3, after 96 hours",17.5 µg/mL
same,MIC,"Trichophyton rubrum; strain 360, after 96 hours",7.5 µg/mL
same,MIC,"Trichophyton rubrum; strain Blehl, after 96 hours",37.5 µg/mL
same,MIC,"Trichophyton rubrum; strain Haggerty, after 96 hours",7.5 µg/mL
same,MIC,Microsporum distortum,7.5 µg/mL
same,MIC,Trichophyton ascoides,7.5 µg/mL
same,MIC,Aspergillus niger 6275,17.5 µg/mL
same,MIC,Trichophyton megninii,7.5 µg/mL
same,MIC,Trichophyton soudenense,17.5 µg/mL
same,MIC,Epidermophyton floccosum,17.5 µg/mL
same,MIC,Microsporum nanum,3 µg/mL
same,MIC,Tricoderm sp.,7.5 µg/mL
same,MIC,Trichophyton discoides,17.5 µg/mL
same,"Average No. of Days to become negative, Cultures",T. mentagrophytes; concentration 1%,12.4 days
same,"Average No. of Days to become negative, Lesion",T. mentagrophytes; concentration 1%,14.4 days
same,"Average Sum of lesion scores, Days 1-5",T. mentagrophytes; concentration 1%,13.0
same,"Average Sum of lesion scores, Days 1-10",T. mentagrophytes; concentration 1%,25.0
same,"Average No. of Days to become negative, Cultures",T. mentagrophytes; concentration 4%,5.6 days
same,"Average No. of Days to become negative, Lesion",T. mentagrophytes; concentration 4%,7.4 days
same,"Average Sum of lesion scores, Days 1-5",T. mentagrophytes; concentration 4%,10.0
same,"Average Sum of lesion scores, Days 1-10",T. mentagrophytes; concentration 4%,11.8
same,MIC,"Candida albicans; strain 1, after 48 hours",75 µg/mL
same,MIC,"Candida albicans; strain 2, after 48 hours",75 µg/mL
same,MIC,"Candida albicans; strain 3, after 48 hours",75 µg/mL
same,MIC,"Candida albicans; strain 4, after 48 hours",37.5 µg/mL
same,MIC,"Candida albicans; strain 5, after 48 hours",75 µg/mL
same,MIC,"Candida albicans; strain 6, after 48 hours",75 µg/mL
same,MIC,"Candida albicans; strain 8, after 48 hours",75 µg/mL
same,MIC,"Candida albicans; strain 9, after 48 hours",75 µg/mL
same,MIC,"Candida albicans; strain 29, after 48 hours",37.5 µg/mL
same,MIC,"Candida albicans; strain Atkisson, after 48 hours",75 µg/mL
same,MIC,"Candida albicans; strain Bertrand, after 48 hours",75 µg/mL
same,MIC,"Candida albicans; strain Bevan, after 48 hours",75 µg/mL
same,MIC,"Candida albicans; strain Blunden, after 48 hours",75 µg/mL
same,MIC,"Candida albicans; strain Bognay, after 48 hours",75 µg/mL
same,MIC,"Candida albicans; strain Boyer, after 48 hours",75 µg/mL
same,MIC,"Candida albicans; strain Burke, after 48 hours",75 µg/mL
same,MIC,"Candida albicans; strain Burnside, after 48 hours",75 µg/mL
same,MIC,"Candida albicans; strain Collins, after 48 hours",75 µg/mL
same,MIC,"Candida albicans; strain Fix, after 48 hours",75 µg/mL
same,MIC,"Candida albicans; strain Frazier, after 48 hours",75 µg/mL
same,MIC,"Candida albicans; strain Fulcher, after 48 hours",75 µg/mL
same,MIC,"Candida albicans; strain Gay, after 48 hours",75 µg/mL
same,MIC,"Candida albicans; strain Hons, after 48 hours",75 µg/mL
same,MIC,"Candida albicans; strain Johnson, after 48 hours",75 µg/mL
same,MIC,"Candida albicans; strain Kenndy 2, after 48 hours",75 µg/mL
same,MIC,"Candida albicans; strain Kennedy 1, after 48 hours",37.5 µg/mL
same,MIC,"Candida albicans; strain Lehtman, after 48 hours",75 µg/mL
same,MIC,"Candida albicans; strain Lusk, after 48 hours",75 µg/mL
same,MIC,"Candida albicans; strain Merkel, after 48 hours",75 µg/mL
same,MIC,"Candida albicans; strain Newcomb, after 48 hours",37.5 µg/mL
same,MIC,"Candida albicans; strain Sherod, after 48 hours",75 µg/mL
same,MIC,"Candida albicans; strain Shurelli, after 48 hours",75 µg/mL
same,MIC,"Candida albicans; strain Sparks, after 48 hours",75 µg/mL
same,MIC,"Candida albicans; strain Tyner, after 48 hours",75 µg/mL
same,IC50,"Trychomonas vaginalis; 50% suppression, read-out: Minimal Level to Produce 50% Suppression",30 µg/mL
same,IC90,"Trychomonas vaginalis; 90% suppression, read-out: Minimal Level to Produce 90% Suppression",38 µg/mL
